In patent publication US11384078B2, “5,6-fused-bicyclic compounds and compositions for the treatment of parasitic diseases” (NOVARTIS AG, priority 2017, dated 2022):
Like-named read-outs stand apart in the source and are kept apart here.

Columns and labels:
[1] = system: Trypanosoma cruzi amastigotes cultured in 3T3 fibroblast cells; assay: Assay for growth inhibition of kinetoplastid parasite Trypanosoma cruzi (beta-galactosidase Tulahuen strain, CPRG readout); assay type: cell-based; conditions: read-out: Buckner infectious T. cruzi EC50
Description: Assay for Growth Inhibition of Kinetoplastid Parasite Trypanosoma cruzi
Compounds of the invention can be assayed for inhibitor activity against Trypanosoma cruzi amastigotes cultured in 3T3 fibroblast cells. The assay is done using the mammalian stage (amastigotes) of T. cruzi that replicates in the intracellular space of host cells. The host cells are initially infected with the culture-derived trypomastigotes that rapidly invade and then divide as amastigotes. The protocol uses the Tulahuen strain of T. cruzi that has been engineered to express the E. coli beta-galactosidase gene (Lac-Z) (Antimicr. Agents Chemoth. 40:2592, 1996). This allows for a colorimetric readout by using the substrate CPRG and an absorbance plate reader.
3T3 fibroblast cells are re-suspended in RPMI-1640 medium without phenol red medium supplemented with 10% FBS (heat inactivated), 100 μg/ml penicillin, and 100 μg/ml streptomycin. Forty μL of suspension (1,000 cells) is dispensed into 384-well plates and incubated overnight at 37° C. temperature and in atmosphere containing 5% CO2. The following day, 100 nL of compounds of the invention in DMSO are added to plate wells containing 3T3 cells. At the same time control compounds (benznidazole and nifurtimox) and DMSO are added to plates to serve as the positive and negative controls, respectively. After that, 10 μL of media containing 10,000 T. cruzi trypomastigotes are added to each plate well and plates are placed back into incubators. After 6 day incubation, 10 μL of reagent solution (0.6 mM CPRG, 0.6% NP-40 in PBS) is added to plates and incubated at room temperature for 2 hours. Absorbance is then measured on SpectraMax GEMINI fluorimeter to determine relative number of T. cruzi cells present in each plate well.

[2] = system: Leishmania donovani axenic amastigote; assay: In vitro assay for growth inhibition of Leishmania donovani axenic amastigote (Cell TiterGlo luminescence); assay type: cell-based; conditions: read-out: L. donovani amastigotes EC50
Description: Abbreviations as used herein below have the corresponding meaning: • CPRG Chlorophenol Red-P-D-galactopyranoside • ATP adenosine triphosphate • BSA bovine serum albumin • DMSO dimethyl sulfoxide • FBS fetal bovine serum • PBS phosphate buffered saline • RPMI 1640 Rosweli Park Memorial Institute (RPMI) 1640 medium In Vitro Assay for Growth Inhibition of Leishmania donovani Axenic Amastiqote
Leishmania donovani axenic amastigote parasites are grown at 37° C., 5% CO2 in media made of RPMI 1640, 4 mM L-glutamine, 20% heat inactivated FBS, 100 units/ml of penicillin and 100 μg/ml of streptomycin, 23 μM folic acid, 100 μM adenosine, 22 mM D-glucose, 25 mM MES. The pH of media is adjusted to 5.5 at 37° C. using HCl. 20 μL of media is first dispensed into 384 well plates and 100 nL of the compounds of invention in DMSO are added to the plate wells. At the same time control compounds and DMSO are added to plates to serve as the positive and negative controls, respectively. 40 μL of parasite culture (9600 parasites) are then added to the plate wells. The plates are then placed into incubators. After two days incubation, 20 μL of Cell TiterGlo® (Promega) is added to the plate wells. The luminescence signal of each well is measured using the Envision reader (Perkin Elmer).

[3] = Trypanosoma cruzi, Fibroblast, T. cruzi amastigotes in 3T3 fibroblast cells
[4] = Leishmania donovani, L. donovani axenic amastigotes in vitro
[5] = Trypanosoma cruzi, Fibroblast, Table 4: compound of Formula (I) compared with compounds having a different core
[6] = Leishmania donovani, Table 4: compound of Formula (I) compared with compounds having a different core

Cc1nc(C)c(C(=O)Nc2ccc(F)c(-n3cc4cc(CC(C)C)cnc4n3)c2)o1 [Compound 16, N-{4-fluoro-3-[5-(2-methylpropyl)-2H-pyrazolo[3,4-b]pyridin-2-yl]phenyl}-2,4-dimethyl-1,3-oxazole-5-carboxamide]
EC50 [1, 3]: 12 nM
EC50 [2, 4]: 89 nM

Cc1nc(C)c(C(=O)Nc2ccc(F)c(-n3cc4cc(C5CC5)cnc4n3)c2)o1 [Compound 17, N-(3-{5-cyclopropyl-2H-pyrazolo[3,4-b]pyridin-2-yl}-4-fluorophenyl)-2,4-dimethyl-1,3-oxazole-5-carboxamide]
EC50 [1, 3]: 16 nM
EC50 [2, 4]: 64 nM

O=C(Nc1ccc(F)c(-n2cc3cc(C4CCCC4)cnc3n2)c1)N1CC(F)C1 [Compound 18, N-(3-{5-cyclopentyl-2H-pyrazolo[3,4-b]pyridin-2-yl}-4-fluorophenyl)-3-fluoroazetidine-1-carboxamide]
EC50 [1, 3]: 160 nM
EC50 [2, 4]: 290 nM

O=C(Nc1ccc(F)c(-n2cc3cc(C4CCCC4)cnc3n2)c1)N1CC(F)(F)C1 [Compound 30, N-(3-{5-cyclopentyl-2H-pyrazolo[3,4-b]pyridin-2-yl}-4-fluorophenyl)-3,3-difluoroazetidine-1-carboxamide]
EC50 [2, 4]: 590 nM

CC(C)Cc1cnc2nn(-c3cc(NC(=O)N4CC[C@@H](F)C4)ccc3F)cc2c1 [Compound 41, (3R)-3-fluoro-N-{4-fluoro-3-[5-(2-methylpropyl)-2H-pyrazolo[3,4-b]pyridin-2-yl]phenyl}pyrrolidine-1-carboxamide]
EC50 [2, 4]: 20 nM

O=C(Nc1ccc(F)c(-n2cc3cc(C4CCCC4)cnc3n2)c1)N1CC[C@@H](F)C1 [Compound 43, (3R)-N-(3-{5-cyclopentyl-2H-pyrazolo[3,4-b]pyridin-2-yl}-4-fluorophenyl)-3-fluoropyrrolidine-1-carboxamide]
EC50 [1, 3]: 5.2 nM
EC50 [2, 4]: 4.7 nM

CC(C)Cc1cnc2nn(-c3cc(NC(=O)c4ccco4)ccc3F)cc2c1 [Compound 54, N-{4-fluoro-3-[5-(2-methylpropyl)-2H-pyrazolo[3,4-b]pyridin-2-yl]phenyl}furan-2-carboxamide]
EC50 [1, 3]: 4.1 nM
EC50 [2, 4]: 28 nM

O=C(Nc1ccc(F)c(-n2cc3cc(C4CCCCC4)cnc3n2)c1)c1ccco1 [Compound 57, N-(3-{5-cyclohexyl-2H-pyrazolo[3,4-b]pyridin-2-yl}-4-fluorophenyl)furan-2-carboxamide]
EC50 [1, 3]: 360 nM
EC50 [2, 4]: 710 nM

CCC(C)c1cnc2nn(-c3cc(NC(=O)c4ccco4)ccc3F)cc2c1 (stereo not shown) [Compound 61, N-{3-[5-(butan-2-yl)-2H-pyrazolo[3,4-b]pyridin-2-yl]-4-fluorophenyl}furan-2-carboxamide]
EC50 [1, 3]: 52 nM
EC50 [2, 4]: 240 nM

Cc1nc(C)c(C(=O)Nc2ccc(F)c(-n3cc4cc(CC(C)(C)C)cnc4n3)c2)o1 [Compound 102, N-{3-[5-(2,2-dimethylpropyl)-2H-pyrazolo[3,4-b]pyridin-2-yl]-4-fluorophenyl}-2,4-dimethyl-1,3-oxazole-5-carboxamide]
EC50 [1, 3]: 46 nM
EC50 [2, 4]: 110 nM

Cc1ccc(C(=O)Nc2ccc(F)c(-n3cc4cc(C(C)C)cnc4n3)c2)o1 [Compound 109, N-{4-fluoro-3-[5-(propan-2-yl)-2H-pyrazolo[3,4-b]pyridin-2-yl]phenyl}-5-methylfuran-2-carboxamide]
EC50 [1, 3]: 15 nM
EC50 [2, 4]: 74 nM

COc1ccc(C(=O)Nc2ccc(F)c(-n3cc4cc(C(C)C)cnc4n3)c2)o1 [Compound 110, N-{4-fluoro-3-[5-(propan-2-yl)-2H-pyrazolo[3,4-b]pyridin-2-yl]phenyl}-5-methoxyfuran-2-carboxamide]
EC50 [1, 3]: 150 nM
EC50 [2, 4]: 640 nM

CC(C)c1cnc2nn(-c3cc(NC(=O)c4ccc(F)o4)ccc3F)cc2c1 [Compound 113, 5-fluoro-N-{4-fluoro-3-[5-(propan-2-yl)-2H-pyrazolo[3,4-b]pyridin-2-yl]phenyl}furan-2-carboxamide]
EC50 [1, 3]: 5.22 nM
EC50 [2, 4]: 37 nM

O=C(Nc1ccc(F)c(-n2cc3cc(N4CCOCC4)cnc3n2)c1)c1ccco1 [Compound 122, N-{4-fluoro-3-[5-(morpholin-4-yl)-2H-pyrazolo[3,4-b]pyridin-2-yl]phenyl}furan-2-carboxamide]
EC50 [1, 3]: 4.2 nM
EC50 [2, 4]: 15 nM

CC(C)c1cnc2nn(-c3cc(NC(=O)N4CC(F)(F)C4)ccc3F)cc2c1 [Compound 124, 3,3-difluoro-N-{4-fluoro-3-[5-(propan-2-yl)-2H-pyrazolo[3,4-b]pyridin-2-yl]phenyl}azetidine-1-carboxamide]
EC50 [1, 3]: 16 nM
EC50 [2, 4]: 18 nM

CC(C)c1cnc2nn(-c3cc(NC(=O)C4CCC4)ccc3F)cc2c1 [Compound 210, N-{4-fluoro-3-[5-(propan-2-yl)-2H-pyrazolo[3,4-b]pyridin-2-yl]phenyl}cyclobutanecarboxamide]
EC50 [1, 3]: 79 nM
EC50 [2, 4]: 494 nM

CC(C)c1cnc2nn(-c3cc(NC(=O)CC(C)C(F)(F)F)ccc3F)cc2c1 (stereo not shown) [Compound 213, 4,4,4-trifluoro-N-{4-fluoro-3-[5-(propan-2-yl)-2H-pyrazolo[3,4-b]pyridin-2-yl]phenyl}-3-methylbutanamide]
EC50 [1, 3]: 363 nM
EC50 [2, 4]: 1560 nM

CC(C)c1cnc2nn(-c3cc(NC(=O)CC(C)(C)C)ccc3F)cc2c1 [Compound 217, N-{4-fluoro-3-[5-(propan-2-yl)-2H-pyrazolo[3,4-b]pyridin-2-yl]phenyl}-3,3-dimethylbutanamide]
EC50 [1, 3]: 4350 nM
EC50 [2, 4]: 14500 nM

O=C(Nc1ccc(F)c(-n2cc3cc(N4CC5(C4)CC5(F)F)cnc3n2)c1)N1CC(F)C1 [Compound 261, N-[3-(5-{1,1-difluoro-5-azaspiro[2.3]hexan-5-yl}-2H-pyrazolo[3,4-b]pyridin-2-yl)-4-fluorophenyl}-3-fluoroazetidine-1-carboxamide]
EC50 [1, 3]: 2 nM
EC50 [2, 4]: 4 nM

O=C(Nc1ccc(F)c(-n2cc3cc(N4CCC(F)(F)C4)cnc3n2)c1)N1CC(F)C1 [Compound 262, N-{3-[5-(3,3-difluoropyrrolidin-1-yl)-2H-pyrazolo[3,4-b]pyridin-2-yl]-4-fluorophenyl}-3-fluoroazetidine-1-carboxamide]
EC50 [1, 3]: 4 nM
EC50 [2, 4]: 33 nM

Cc1nc(C)c(C(=O)Nc2ccc(F)c(-n3cc4cc(N5CC(C(F)(F)F)C5)cnc4n3)c2)o1 [Compound 279]
EC50 ([1]; T. cruzi amastigotes in 3T3 fibroblast cells): 3 nM
EC50 ([2]; L. donovani axenic amastigotes in vitro): 10 nM

O=C(Nc1ccc(F)c(-n2cc3cc(-c4ncccc4Cl)cnc3n2)c1)C1CC1 [Compound 333, N-{3-[5-(3-chloropyridin-2-yl)-2H-pyrazolo[3,4-b]pyridin-2-yl]-4-fluorophenyl}cyclopropanecarboxamide]
EC50 [1, 3]: 16 nM
EC50 [2, 4]: 43 nM

Cc1nc(C)c(C(=O)Nc2ccc(F)c(-n3cc4cc(C(C)C)cnc4n3)c2)o1 [drawing 458]
EC50 [1, 5]: 15 nM
EC50 [2, 6]: 18 nM

Cc1nc(C)c(C(=O)Nc2ccc(F)c(-c3cn4cc(C(C)C)cnc4n3)c2)o1 [reference compound]
EC50 [1, 5]: 48 nM
EC50 [2, 6]: 180 nM

Cc1nc(C)c(C(=O)Nc2ccc(F)c(-c3nc4ncc(C(C)C)cn4n3)c2)o1 [reference compound]
EC50 [1, 5]: 45 nM
EC50 [2, 6]: 210 nM

Cc1nc(C)c(C(=O)Nc2ccc(F)c(-c3nc4ncc(C(C)(C)C)cn4n3)c2)o1 [reference compound]
EC50 [1, 5]: 22 nM
EC50 [2, 6]: 80 nM

Cc1nc(C)c(C(=O)Nc2ccc(F)c(-c3cn4nc(C(C)(C)C)cnc4n3)c2)o1 [reference compound]
EC50 [1, 5]: 57 nM
EC50 [2, 6]: 367 nM
